Source: article PMC12562379, “Facile Synthesis of N-vinylindoles via Knoevenagel Condensation: Molecular Features and Biological Activities” (International Journal of Molecular Sciences, 2025)
≈ marks a conversion by molar mass, not a printed value. Where two headings read alike, the source gives them in different places.

How the values were obtained:
[1] = tested on: S. aureus MRSA 12673; test: Microbroth dilution assay; format: cell-based; details: Staphylococcus aureus, S. aureus MRSA 12673
[2] = tested on: SKOV-3 cells; test: Caspase-3/7 assay (apoptosis, Muse Cell Analyzer); format: cell-based, human; details: SKOV-3, 24 h
Method: The SKOV-3 cells (5 × 10^5 cells/well) were seeded and incubated with compound 2i at concentrations of 2, 5, 10, 15, 30, and 60 µg/mL for 24 h. Then, the cells were stained with Muse Caspase-3/7 Kit, according to the manufacturer’s instructions. Muse Cell Analyzer and Muse 1.4 Analysis Software (Merck Millipore, Burlington, MA, USA) were used to calculate the amount of live, early apoptotic, late apoptotic, and dead cells. The results are shown as a percentage of the cells in each population obtained from two independently repeated experiments (in three repeats).

[3] = biological target: T1, AGE2-BSA/sRAGE interaction (Homo sapiens, UniProt Q15109); test: ELISA AGE2-BSA/sRAGE inhibitory screening; format: binding
T1 construct: purchased Creative BioMart
Method: The in vitro inhibitor screening of AGE2 (glyceraldehyde-modified AGE)-sRAGE interaction (soluble RAGE) was performed using a 96-well AGE-BSA-coated plate (Creative BioMart® ELISA kit, Shirley, NY, USA), according to the manufacturer’s instructions. 100 UA/mL soluble RAGE (sRAGE) was incubated with 100 μM of the tested compounds or 0.05% DMSO as a negative control on an AGE2-BSA-coated plate at room temperature for 60 min, shaking at 300 rpm on an orbital microplate shaker. After incubation, the wells were washed 4 times with wash buffer and horseradish peroxidase (HRP)-labeled anti-RAGE antibody was added and the plate was further incubated at room temperature for 60 min, shaking at 300 rpm on an orbital microplate shaker. After incubation, the wells were washed 4 times with wash buffer and the Substrate Reagent was added to each well. After an incubation at room temperature for 5 min, the HRP-labeled antibody sRAGE-AGE complex was then detected by measuring the absorbance at 450 nm using the microplate reader Varioskan (Thermo Fischer Scientific). These experiments were repeated two times.

[4] = tested on: C. albicans ATCC 10231; test: Microbroth dilution assay; format: cell-based, Candida albicans
Method: (§1) The minimum inhibitory concentration (MIC) and minimum bactericidal/fungicidal concentration (MBC/MFC) of the tested compounds were determined by the microbroth dilution technique using 96-well plates based on the methodology described in the EUCAST (European Committee on Antimicrobial Susceptibility Testing) standards. Reference and clinical strains of Gram-positive (Staphylococcus aureus ATCC 6538, Staphylococuccus aureus MRSA 6347) and Gram-negative (Escherichia coli ATCC 8739) bacteria, and yeast (Candida albicans ATCC 10231, Candida glabrata ATCC 2001) were used for the assay. The studies were carried out in the Mueller–Hinton (MH) broth for bacteria and RPMI 1640 broth + MOPS (Sigma-Aldrich, Poland) buffer in the case of yeast. The dry test samples were dissolved in DMSO (dimethyl sulfoxide), resulting in a final concentration of 15 mg/mL, and then diluted in a geometric progression. Ampicillin (Sigma-Aldrich, Poland) acted as a control sample (512 to 4 µg/mL) for bacteria and ketoconazole (128 to 1 µg/mL) (Sigma-Aldrich, Poland) acted as a control sample for yeast. The cultures of microorganisms were prepared by transferring cells from the stock cultures to tubes with the appropriate broth and incubated with agitation in an aerobic atmosphere for 18 ± 2 h at 35 ± 1 °C; next, they were diluted to achieve an optical density corresponding to 5 × 105 (bacteria) or 2 × 105 (yeast) colony-forming units per mL (cfu/mL). An appropriate media (96 µL), along with the tested compounds with a final concentration range of 300–3.1 µg/mL (4 µL) and next microbial suspension (100 µL) were added to each well. Plates with samples were incubated in adequate conditions described above and microbial growth was assessed. […] (>90%; ketoconazole) but 50% (for other compounds) inhibits visible growth of yeasts. Next, as a control of microbial viability, 100 µL of the samples from each well without growth was inoculated on the MH or RPMI agar plates and incubated for 18 ± 2 h at 35 ± 1 °C and finally, the CFU was counted. The MBC/MFC was determined as the minimum concentration of compounds required to kill 99.9% the organisms.

[5] = tested on: E. coli ATCC 8739; test: Microbroth dilution assay; format: cell-based; details: Escherichia coli, ATCC8739, E. coli ATCC 8739
Method: as §1

[6] = tested on: HeLa, SKOV-3, AGS (and HaCaT) cell lines; test: MTT assay, ranges stated over several cell lines; format: cell-based, human; details: for IC50: Homo sapiens
Method: The human ovarian SKOV-3, gastric adenocarcinoma AGS, cervical HeLa cell lines and non-cancerous keratinocytes HaCaT were obtained from the American Type Culture Collection (ATCC, Manassas, VA, USA). The cell lines were cultured in McCoy’s Medium, Dulbecco’s Modified Eagle’s Medium/F12, and DMEM, respectively (Merck Millipore, Burlington, MA, USA). Penicillin (100 units/mL), streptomycin ([…]), and 10% (v/v) fetal bovine serum (FBS) were added to all the media. The cells were incubated at 37 °C and 5% CO2.
To estimate the cytotoxic activity of the obtained compounds 2a-i, MTT assay was used. The cells (5 × 10^3 cells/well) were treated with the compounds in a range of concentrations 1–150 µg/mL. […] After 24 h, MTT solution (0.5 mg/mL) was added to the cells. Formazan crystals were dissolved in DMSO and the absorbance was measured with a microtiter plate reader (Epoch, BioTek Instruments, Winooski, VT, USA).

[7] = tested on: S. aureus ATCC 6535, S. aureus MRSA 12673 and other tested bacterial and yeast strains; test: Microbroth dilution assay, ranges stated over several strains; format: cell-based; details: range over S. aureus ATCC 6535 and MRSA 12673
[8] = tested on: C. glabrata ATCC 2001; test: Microbroth dilution assay; format: cell-based, Candida glabrata; details: Nakaseomyces glabratus, ATCC2001
Method: as §1

[9] = tested on: S. aureus ATCC 6535; test: Microbroth dilution assay; format: cell-based; details: Staphylococcus aureus, ATCC6535
[10] = range over the cancer cell lines HeLa, SKOV-3 and AGS

T1 sequence (Q15109 23-342 limits assumed): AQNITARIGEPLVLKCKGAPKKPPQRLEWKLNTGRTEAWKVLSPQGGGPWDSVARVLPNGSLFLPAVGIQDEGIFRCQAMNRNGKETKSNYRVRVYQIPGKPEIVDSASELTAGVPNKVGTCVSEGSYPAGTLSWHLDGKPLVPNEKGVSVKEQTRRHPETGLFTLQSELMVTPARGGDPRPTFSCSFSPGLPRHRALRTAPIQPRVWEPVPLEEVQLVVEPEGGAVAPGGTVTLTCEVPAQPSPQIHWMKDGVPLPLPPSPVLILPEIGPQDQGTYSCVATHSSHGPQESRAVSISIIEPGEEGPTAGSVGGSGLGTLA

SMILES: C(=C(\C1=NCCN1)n1ccc2ccccc21)/c1ccc2ccccc2c1 [Compound 2i, (Z)-1-[1-(4,5-dihydro-1H-imidazol-2-yl)-2-(naphthalen-2-yl)vinyl]-1H-indole]
- MBC [1]: 30 µg/mL (≈ 88.9 µM)
- MIC ([1]; read-out: MIC): 30 µg/mL (≈ 88.9 µM)
- dead cells ([2]; 2 µg/mL): 6.07 ± 0.58%
- late apoptotic cells ([2]; 2 µg/mL): 11.52 ± 1.53%
- dead cells ([2]; 5 µg/mL): 7.65 ± 0.61%
- late apoptotic cells ([2]; 5 µg/mL): 22.72 ± 1.37%
- dead cells ([2]; 10 µg/mL): 18.11 ± 1.45%
- late apoptotic cells ([2]; 10 µg/mL): 48.85 ± 0.39%
- dead cells ([2]; 15 µg/mL): 31.52 ± 2.68%
- late apoptotic cells ([2]; 15 µg/mL): 54.94 ± 3.12%
- dead cells ([2]; 30 µg/mL): 68.95 ± 2.09%
- late apoptotic cells ([2]; 30 µg/mL): 28.21 ± 1.61%
- dead cells ([2]; 60 µg/mL): 66.85 ± 1.96%
- late apoptotic cells ([2]; 60 µg/mL): 31.87 ± 2.01%
- induction of apoptosis ([2]; from 2 µg/mL to 60 µg/mL): significantly induced apoptosis
- inhibition at 100 µM [3]: 49.4%
- MFC ([4]; C. albicans ATCC 10231): 120 µg/mL (≈ 356 µM)
- MIC ([4]; C. albicans ATCC 10231): 120 µg/mL (≈ 356 µM)
- MFC ([4]; Candida albicans, ATCC10231, C. albicans ATCC 10231, read-out: MFC): 60 µg/mL (≈ 178 µM)
- MIC ([4]; Candida albicans, ATCC10231, C. albicans ATCC 10231, read-out: MIC): 60 µg/mL (≈ 178 µM)
- MBC [5]: > 240 µg/mL
- MIC ([5]; read-out: MIC): > 240 µg/mL
- IC50 ([6]; range over HeLa and SKOV-3 cell lines): 2.03 to 2.45 µg/mL (≈ 6.02 to 7.26 µM)
- IC50 [6, 10]: 2.03 to 5.68 µg/mL (≈ 6.02 to 16.8 µM)
- IC50 (range over cell lines) [6, 10]: 2.03 to 5.58 µg/mL
- MBC (range over strains) [7]: 30 µg/mL (≈ 88.9 µM)
- MIC (range over strains) [7]: 15 to 30 µg/mL
- MFC [8]: 60 µg/mL (≈ 178 µM)
- MIC [8]: 60 µg/mL (≈ 178 µM)
- MBC [9]: 30 µg/mL (≈ 88.9 µM)
- MIC [9]: 15 µg/mL (≈ 44.5 µM)
